Results from ChEMBL document CHEMBL1201862, “PubChem BioAssay data set” (2004).
The source made the active and inactive calls.

How the values were obtained:
[1] = molecular target: T1, Carboxy-terminal domain RNA polymerase II polypeptide A small phosphatase 1 (Homo sapiens, UniProt Q9GZU7); experiment: inhibitors of CTDSP1, concentration-response testing, biochemical assay, absorbance-based, actives from ultra-high-throughput screening (AID 540297); type: functional
T1 sequence (Q9GZU7 whole entry): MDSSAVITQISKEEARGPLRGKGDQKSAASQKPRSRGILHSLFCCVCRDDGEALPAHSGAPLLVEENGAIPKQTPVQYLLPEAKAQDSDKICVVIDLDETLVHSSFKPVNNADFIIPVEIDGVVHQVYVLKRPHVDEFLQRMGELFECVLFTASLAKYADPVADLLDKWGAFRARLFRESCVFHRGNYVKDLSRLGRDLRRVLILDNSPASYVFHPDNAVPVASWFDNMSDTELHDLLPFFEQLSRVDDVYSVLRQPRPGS

[2] = molecular target: Genome polyprotein (dengue virus type 2, UniProt P29990); experiment: Dengue-2 NS5 methyltransferase inhibitors, primary screen, biochemical, confirmation dose response (AID 588689); type: functional
[3] = molecular target: Voltage-dependent T-type calcium channel subunit alpha-1H (Homo sapiens, UniProt O95180); type: functional;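 also: channel activity triggered by adding a high calcium stimulation buffer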
[4] = A Cell Based Secondary Assay To Explore Cytotoxicity of Compounds that Sensitize Mycobacterium Tuberculosis to Beta-Lactam Antibiotics.; type: functional
[5] = molecular target: T2, Short transient receptor potential channel 4 (Mus musculus, UniProt Q9QUQ5); experiment: mouse TRPC4 channel activators, dose response, cell-based, HEK293 TRPC4/mu-opioid, Fluo-4 calcium (AID 434937); type: functional
T2 sequence (Q9QUQ5 whole entry): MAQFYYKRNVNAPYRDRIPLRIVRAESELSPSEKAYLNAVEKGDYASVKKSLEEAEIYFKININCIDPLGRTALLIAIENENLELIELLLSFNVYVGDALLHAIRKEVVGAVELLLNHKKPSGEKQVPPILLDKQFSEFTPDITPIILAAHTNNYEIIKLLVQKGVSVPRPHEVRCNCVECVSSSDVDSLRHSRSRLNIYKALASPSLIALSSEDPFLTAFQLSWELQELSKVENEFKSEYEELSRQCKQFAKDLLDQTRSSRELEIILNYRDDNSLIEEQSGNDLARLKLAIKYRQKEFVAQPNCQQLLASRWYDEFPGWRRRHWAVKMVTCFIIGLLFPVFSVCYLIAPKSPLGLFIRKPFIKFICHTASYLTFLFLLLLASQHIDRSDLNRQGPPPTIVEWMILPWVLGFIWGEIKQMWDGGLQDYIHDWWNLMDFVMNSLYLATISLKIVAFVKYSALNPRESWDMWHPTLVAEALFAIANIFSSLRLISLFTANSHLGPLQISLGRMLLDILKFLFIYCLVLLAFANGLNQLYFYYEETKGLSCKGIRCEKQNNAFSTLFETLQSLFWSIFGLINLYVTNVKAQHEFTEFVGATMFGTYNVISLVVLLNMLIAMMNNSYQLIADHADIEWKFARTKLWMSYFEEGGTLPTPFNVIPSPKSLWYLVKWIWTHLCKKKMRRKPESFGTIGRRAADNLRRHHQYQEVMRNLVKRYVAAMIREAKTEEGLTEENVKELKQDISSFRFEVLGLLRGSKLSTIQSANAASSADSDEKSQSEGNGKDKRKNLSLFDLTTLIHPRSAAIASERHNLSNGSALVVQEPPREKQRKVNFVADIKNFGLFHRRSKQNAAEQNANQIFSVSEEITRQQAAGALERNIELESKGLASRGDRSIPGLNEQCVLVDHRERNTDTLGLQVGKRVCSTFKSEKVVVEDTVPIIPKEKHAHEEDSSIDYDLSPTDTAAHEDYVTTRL

[6] = tested on: Streptococcus sp. 'group A'; experiment: growth inhibition of control SK(-) GAS strain, dose response, counter-screen for streptokinase expression inhibitor project, luminescence, kanamycin, BacTiterGlo, confirmation (AID 1900); type: functional, organism-based
[7] = C. albicans growth with fluconazole, confirmation, fluorescence, retest (AID 2467); type: functional, cell-based
[8] = tested on: Streptococcus; experiment: Group A Streptococcus viability loss, dose response, counter-screen for streptokinase expression inhibitor project, luminescence, BacTiterGlo (AID 1915); type: functional, organism-based;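 also: potency for reduction of bacterial viability or growth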
[9] = NIH-3T3 fibroblast cytotoxicity, dose response, cytotoxicity control, cell-based, fluorescence, Alamar Blue, secondary assay (AID 2327); type: functional;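 also: NIH-3T3 mouse fibroblasts cultured with fluconazole at 8 µg/mL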
[10] = molecular target: Beta-galactosidase (Escherichia coli, UniProt Q8VNN2); experiment: beta-galactosidase enzyme inhibitors and activators, dose response, artefact control for CCR6 antagonist project, biochemical, E. coli enzyme, set 3 (AID 504712); type: functional
[11] = molecular target: Glyceraldehyde-3-phosphate dehydrogenase (Homo sapiens, UniProt P04406)
[12] = tested on: INS1; experiment: beta cell apoptosis inhibitors, cytokine rescue, dose response, luminescence, retest (AID 449756); type: functional, cell-based; conditions: Rattus norvegicus, INS1;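 also: cell death triggered by IL-1 beta plus TNF-alpha plus IFN-gamma mixture; protective hits raise ATP signal compared with cytokine alone wells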
[13] = Luminescence Cell-Based Dose Retest to Confirm Inhibitors of Cancer Stem Cells. [Related pubchem assays (depositor defined):AID2717, AID2721]; type: functional; conditions: Homo sapiens
[14] = Luminescence Cell-Based Dose Response HTS to Identify Activators of Luciferase Translation or Activity in H4 […] Cells. [Related pubchem assays: 1829 (Project Summary), 1814 (Primary HTS)]; type: functional
[15] = Luminescence Cell-Based Dose Confirmation HTS to Identify Activators of 5'UTR Stem-Loop Driven Alpha-Synuclein mRNA Translation in H4 Neuroglioblastoma Cells. [Related pubchem assays: 1829 (Project Summary), 1814 (Primary HTS)]; type: functional
[16] = tested on: H4; experiment: Luminescence Cell-Based Dose Response HTS to Identify Activators of 5'UTR Stem-Loop Driven Prion Protein mRNA Translation in H4 Neuroglioblastoma Cells. [Related pubchem assays: 1829 (Project Summary), 1814 (Primary HTS)]; type: functional; conditions: Homo sapiens
[17] = tested on: HEK293; experiment: NOD2 signaling inhibitors in MDP-stimulated cells, cell-based, uHTS, luminescence (AID 2001); type: functional; conditions: Homo sapiens
[18] = tested on: HEK293; experiment: NOD1 signaling inhibitors, primary screen, cell-based, luminescence, uHTS (AID 1578); type: functional; conditions: Homo sapiens
[19] = tested on: HEK293; experiment: cells; conditions: Homo sapiens
[20] = molecular target: T3, Nucleotide-binding oligomerization domain-containing protein 1 (Homo sapiens, UniProt Q9Y239); experiment: NOD1 signaling inhibitors, SAR follow-up, revised (AID 2333); type: functional
T3 sequence (Q9Y239 whole entry): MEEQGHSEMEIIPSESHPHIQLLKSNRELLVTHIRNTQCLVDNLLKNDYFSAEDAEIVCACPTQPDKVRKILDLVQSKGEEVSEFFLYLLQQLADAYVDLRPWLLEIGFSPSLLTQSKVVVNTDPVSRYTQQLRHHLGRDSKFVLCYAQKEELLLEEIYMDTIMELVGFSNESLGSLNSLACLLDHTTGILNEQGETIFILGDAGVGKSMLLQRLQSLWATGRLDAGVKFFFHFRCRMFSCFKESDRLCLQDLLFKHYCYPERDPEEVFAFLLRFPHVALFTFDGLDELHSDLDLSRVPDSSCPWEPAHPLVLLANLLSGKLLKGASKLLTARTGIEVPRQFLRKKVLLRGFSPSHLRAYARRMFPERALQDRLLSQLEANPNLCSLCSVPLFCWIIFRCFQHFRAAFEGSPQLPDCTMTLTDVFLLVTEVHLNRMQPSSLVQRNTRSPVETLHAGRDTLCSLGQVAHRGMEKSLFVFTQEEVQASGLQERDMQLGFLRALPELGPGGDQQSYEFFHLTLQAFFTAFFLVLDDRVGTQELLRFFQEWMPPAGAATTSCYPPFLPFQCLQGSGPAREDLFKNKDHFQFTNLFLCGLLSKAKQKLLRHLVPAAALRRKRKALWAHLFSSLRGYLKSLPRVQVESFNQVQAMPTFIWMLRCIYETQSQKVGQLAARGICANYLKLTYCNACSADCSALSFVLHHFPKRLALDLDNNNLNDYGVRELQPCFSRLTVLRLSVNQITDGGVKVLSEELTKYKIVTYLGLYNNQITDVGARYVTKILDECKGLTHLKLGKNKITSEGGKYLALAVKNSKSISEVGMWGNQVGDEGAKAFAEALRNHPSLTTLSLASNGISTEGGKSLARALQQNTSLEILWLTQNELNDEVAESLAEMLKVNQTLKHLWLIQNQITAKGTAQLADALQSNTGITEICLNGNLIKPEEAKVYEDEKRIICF

[21] = tested on: HEK293; experiment: cells; type: functional, cell-based; conditions: Homo sapiens
[22] = molecular target: Tumor necrosis factor (Homo sapiens, UniProt P01375); experiment: TNFa-triggered NF-kB activation inhibitors, SAR follow-up, cell-based, revised (AID 2337); type: functional
[23] = tested on: HEK293; experiment: cells; type: functional, cell-based; conditions: Homo sapiens; remark: listed apart in the source
[24] = cells; type: functional
[25] = molecular target: T4, Microphthalmia-associated transcription factor (Homo sapiens, UniProt O75030); experiment: TRPM1 promoter luciferase signal decrease, dose response, MITF inhibitor project, cell-based, SK-MEL-5, cherry-picked, set 3 (AID 493073); type: functional
T4 sequence (O75030 whole entry): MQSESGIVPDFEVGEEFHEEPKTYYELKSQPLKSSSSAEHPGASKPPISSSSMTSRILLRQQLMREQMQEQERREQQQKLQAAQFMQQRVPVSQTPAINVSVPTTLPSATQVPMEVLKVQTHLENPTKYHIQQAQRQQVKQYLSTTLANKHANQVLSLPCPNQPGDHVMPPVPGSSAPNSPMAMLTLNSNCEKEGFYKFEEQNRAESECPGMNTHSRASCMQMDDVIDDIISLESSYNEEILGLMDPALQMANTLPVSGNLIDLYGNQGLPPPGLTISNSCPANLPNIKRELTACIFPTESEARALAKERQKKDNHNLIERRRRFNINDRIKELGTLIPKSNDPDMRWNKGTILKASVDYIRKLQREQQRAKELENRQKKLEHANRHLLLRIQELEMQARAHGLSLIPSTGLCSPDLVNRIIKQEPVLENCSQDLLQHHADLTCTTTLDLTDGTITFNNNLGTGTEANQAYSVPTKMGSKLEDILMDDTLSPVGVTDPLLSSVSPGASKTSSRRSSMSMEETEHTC

Chain of Voltage-dependent T-type calcium channel subunit alpha-1H (O95180 whole entry): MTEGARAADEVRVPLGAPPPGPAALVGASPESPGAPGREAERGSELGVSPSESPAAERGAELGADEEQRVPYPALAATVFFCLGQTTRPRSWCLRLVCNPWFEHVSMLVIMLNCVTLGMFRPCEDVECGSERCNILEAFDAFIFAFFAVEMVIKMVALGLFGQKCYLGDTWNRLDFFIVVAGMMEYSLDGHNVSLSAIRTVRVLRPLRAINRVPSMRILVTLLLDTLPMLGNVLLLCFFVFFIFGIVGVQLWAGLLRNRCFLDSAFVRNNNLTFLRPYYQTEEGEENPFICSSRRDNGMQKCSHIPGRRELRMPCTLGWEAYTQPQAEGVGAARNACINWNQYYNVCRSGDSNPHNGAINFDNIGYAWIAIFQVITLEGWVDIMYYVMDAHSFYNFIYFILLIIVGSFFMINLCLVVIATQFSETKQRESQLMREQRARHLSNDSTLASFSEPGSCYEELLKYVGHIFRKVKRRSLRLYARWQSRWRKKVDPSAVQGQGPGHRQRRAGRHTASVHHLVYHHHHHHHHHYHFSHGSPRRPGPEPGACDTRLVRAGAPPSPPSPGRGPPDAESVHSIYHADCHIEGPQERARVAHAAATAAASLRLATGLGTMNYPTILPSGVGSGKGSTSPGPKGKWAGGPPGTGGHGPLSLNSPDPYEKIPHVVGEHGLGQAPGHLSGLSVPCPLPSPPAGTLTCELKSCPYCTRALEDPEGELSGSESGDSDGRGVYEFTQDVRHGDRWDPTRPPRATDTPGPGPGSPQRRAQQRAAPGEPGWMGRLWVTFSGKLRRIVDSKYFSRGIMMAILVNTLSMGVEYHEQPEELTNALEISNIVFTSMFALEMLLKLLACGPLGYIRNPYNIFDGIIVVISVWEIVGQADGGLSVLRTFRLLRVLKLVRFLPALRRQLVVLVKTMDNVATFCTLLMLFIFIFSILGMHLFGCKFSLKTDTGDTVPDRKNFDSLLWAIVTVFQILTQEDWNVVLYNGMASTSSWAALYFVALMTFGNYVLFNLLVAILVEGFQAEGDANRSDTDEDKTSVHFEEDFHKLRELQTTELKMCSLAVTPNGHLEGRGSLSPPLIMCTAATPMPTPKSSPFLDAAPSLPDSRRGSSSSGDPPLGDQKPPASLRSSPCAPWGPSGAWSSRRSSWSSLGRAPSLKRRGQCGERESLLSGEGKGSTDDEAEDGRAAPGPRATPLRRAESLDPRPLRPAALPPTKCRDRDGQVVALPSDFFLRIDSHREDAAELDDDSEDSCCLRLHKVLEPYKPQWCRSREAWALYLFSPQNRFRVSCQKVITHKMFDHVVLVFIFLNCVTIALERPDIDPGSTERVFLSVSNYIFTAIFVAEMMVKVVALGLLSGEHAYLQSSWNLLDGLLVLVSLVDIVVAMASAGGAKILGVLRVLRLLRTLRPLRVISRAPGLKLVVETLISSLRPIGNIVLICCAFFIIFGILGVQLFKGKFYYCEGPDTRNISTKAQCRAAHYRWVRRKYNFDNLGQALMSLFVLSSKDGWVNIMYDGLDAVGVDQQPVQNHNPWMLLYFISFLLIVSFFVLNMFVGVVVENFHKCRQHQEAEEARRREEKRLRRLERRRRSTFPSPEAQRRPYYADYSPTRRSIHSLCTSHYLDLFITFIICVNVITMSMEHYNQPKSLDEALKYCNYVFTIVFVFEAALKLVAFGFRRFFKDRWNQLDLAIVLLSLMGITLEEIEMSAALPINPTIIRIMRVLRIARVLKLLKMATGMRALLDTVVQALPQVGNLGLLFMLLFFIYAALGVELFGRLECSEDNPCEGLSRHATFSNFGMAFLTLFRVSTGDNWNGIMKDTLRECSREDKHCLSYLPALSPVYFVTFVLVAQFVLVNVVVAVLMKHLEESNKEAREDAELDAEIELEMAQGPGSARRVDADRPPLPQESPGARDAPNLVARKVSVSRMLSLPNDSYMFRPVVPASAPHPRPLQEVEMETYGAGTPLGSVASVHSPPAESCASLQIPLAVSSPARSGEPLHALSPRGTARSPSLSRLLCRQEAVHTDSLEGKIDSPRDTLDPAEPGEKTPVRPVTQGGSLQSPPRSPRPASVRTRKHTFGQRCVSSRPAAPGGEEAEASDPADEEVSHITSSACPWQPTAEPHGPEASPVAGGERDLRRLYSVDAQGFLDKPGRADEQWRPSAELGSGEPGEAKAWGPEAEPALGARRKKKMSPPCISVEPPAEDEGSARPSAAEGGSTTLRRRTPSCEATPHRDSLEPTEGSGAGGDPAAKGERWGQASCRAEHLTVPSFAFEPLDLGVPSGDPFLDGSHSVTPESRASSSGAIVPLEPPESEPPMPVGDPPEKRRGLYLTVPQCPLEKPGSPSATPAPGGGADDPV
Chain of Glyceraldehyde-3-phosphate dehydrogenase (P04406 whole entry): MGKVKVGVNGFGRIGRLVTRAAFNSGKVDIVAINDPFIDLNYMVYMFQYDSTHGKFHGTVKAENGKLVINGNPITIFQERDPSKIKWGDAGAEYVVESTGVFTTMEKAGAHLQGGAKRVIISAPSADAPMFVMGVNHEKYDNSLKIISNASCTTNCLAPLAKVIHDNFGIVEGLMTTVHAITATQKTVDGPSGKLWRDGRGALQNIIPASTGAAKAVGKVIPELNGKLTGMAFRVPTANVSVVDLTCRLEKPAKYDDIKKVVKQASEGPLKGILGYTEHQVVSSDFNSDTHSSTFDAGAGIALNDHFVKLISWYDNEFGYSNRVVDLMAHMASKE
Chain of Genome polyprotein (P29990 2492-3391 limits assumed): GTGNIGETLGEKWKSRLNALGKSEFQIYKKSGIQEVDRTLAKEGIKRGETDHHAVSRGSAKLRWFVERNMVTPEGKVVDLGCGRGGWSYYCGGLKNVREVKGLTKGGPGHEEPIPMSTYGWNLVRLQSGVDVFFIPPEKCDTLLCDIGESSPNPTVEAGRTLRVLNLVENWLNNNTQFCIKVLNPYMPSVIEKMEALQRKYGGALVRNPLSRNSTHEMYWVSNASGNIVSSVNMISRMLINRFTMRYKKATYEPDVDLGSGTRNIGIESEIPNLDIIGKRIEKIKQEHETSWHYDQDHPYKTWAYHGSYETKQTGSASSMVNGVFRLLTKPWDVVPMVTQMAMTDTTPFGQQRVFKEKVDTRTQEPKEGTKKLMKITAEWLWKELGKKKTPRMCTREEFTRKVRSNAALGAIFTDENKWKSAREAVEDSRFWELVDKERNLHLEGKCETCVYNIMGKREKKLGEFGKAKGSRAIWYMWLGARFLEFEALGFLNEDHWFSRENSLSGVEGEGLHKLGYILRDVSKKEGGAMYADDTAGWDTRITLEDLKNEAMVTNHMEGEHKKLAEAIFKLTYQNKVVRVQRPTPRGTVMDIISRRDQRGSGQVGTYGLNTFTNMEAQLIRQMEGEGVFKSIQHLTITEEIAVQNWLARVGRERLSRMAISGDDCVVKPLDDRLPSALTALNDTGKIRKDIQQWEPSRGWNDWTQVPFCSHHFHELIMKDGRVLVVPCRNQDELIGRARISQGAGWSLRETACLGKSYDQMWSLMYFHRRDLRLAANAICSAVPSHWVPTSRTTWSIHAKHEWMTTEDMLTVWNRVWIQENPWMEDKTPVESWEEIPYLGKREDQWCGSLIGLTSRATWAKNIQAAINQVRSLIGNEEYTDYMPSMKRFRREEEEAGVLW
Chain of Beta-galactosidase (Q8VNN2 whole entry): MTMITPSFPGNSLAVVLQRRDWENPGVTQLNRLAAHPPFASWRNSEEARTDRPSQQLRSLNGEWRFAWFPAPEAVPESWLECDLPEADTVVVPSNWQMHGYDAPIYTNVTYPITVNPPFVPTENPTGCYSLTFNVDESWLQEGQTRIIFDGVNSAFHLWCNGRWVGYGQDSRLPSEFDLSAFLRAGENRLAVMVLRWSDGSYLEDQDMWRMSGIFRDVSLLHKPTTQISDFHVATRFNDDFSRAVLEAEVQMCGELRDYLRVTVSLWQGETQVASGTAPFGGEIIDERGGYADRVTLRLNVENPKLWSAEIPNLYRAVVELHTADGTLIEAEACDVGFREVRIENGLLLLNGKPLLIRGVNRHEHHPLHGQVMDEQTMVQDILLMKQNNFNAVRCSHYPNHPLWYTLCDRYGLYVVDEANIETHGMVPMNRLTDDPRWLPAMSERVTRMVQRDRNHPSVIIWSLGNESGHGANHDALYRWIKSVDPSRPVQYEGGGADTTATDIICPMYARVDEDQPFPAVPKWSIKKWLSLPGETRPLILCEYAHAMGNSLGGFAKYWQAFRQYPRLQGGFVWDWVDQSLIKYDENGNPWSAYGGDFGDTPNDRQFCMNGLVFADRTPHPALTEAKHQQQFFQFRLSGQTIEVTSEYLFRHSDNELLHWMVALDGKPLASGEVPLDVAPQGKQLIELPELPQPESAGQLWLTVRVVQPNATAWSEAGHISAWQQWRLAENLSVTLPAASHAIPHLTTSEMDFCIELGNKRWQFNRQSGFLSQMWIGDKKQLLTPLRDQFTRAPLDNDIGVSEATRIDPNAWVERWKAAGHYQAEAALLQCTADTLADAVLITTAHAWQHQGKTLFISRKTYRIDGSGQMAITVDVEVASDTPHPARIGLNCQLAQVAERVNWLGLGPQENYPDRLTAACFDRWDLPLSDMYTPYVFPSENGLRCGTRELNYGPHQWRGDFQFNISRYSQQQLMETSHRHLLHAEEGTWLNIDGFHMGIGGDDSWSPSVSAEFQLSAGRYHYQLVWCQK
Chain of Tumor necrosis factor (P01375 whole entry): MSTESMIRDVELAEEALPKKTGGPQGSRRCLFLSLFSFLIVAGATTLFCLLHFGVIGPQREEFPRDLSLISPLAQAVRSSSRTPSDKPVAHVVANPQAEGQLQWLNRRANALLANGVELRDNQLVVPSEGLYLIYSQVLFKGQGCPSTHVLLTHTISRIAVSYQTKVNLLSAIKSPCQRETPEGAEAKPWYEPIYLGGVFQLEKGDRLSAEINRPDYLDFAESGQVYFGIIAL

## O=C(O)CN1C(=O)/C(=C2\C(=O)N(Cc3ccccc3Cl)c3ccccc32)SC1=S
[1]
  IC50: 2.61 µM (active)
[2]
  IC50: 28.2 µM (active)

## O=S(=O)(c1ccc(Cl)cc1)N1CCCC1c1nc2ccccc2s1 (centres undefined)
[3]
  EC50: 6.61 µM (active)

## CSc1ncccc1C(=O)Nc1nc2ccc(Oc3ccccc3)cc2s1
[4]
  CC50: > 40 µM (active)

## O=C(COc1ccccc1)NNC(=S)NC(=O)c1ccc(Cl)cc1Cl
[5]
  EC50: 4.73 µM (active)
[6]
  EC50: 0.623 µM (active)
[7]
  EC50: > 38 µM (not active)
[8]
  EC50: 2.96 µM (active)
[9]
  EC50: 110 µM (active)

## Cc1cc([N+](=O)[O-])ccc1NC(=S)NC(=O)Cc1ccccc1
[10]
  IC50: > 66.6 µM (inactive)

## O=C(NC1CC1)C1=C[C@H](c2csc3ccccc23)C[C@H](OCc2ccc(CO)cc2)O1
[5]
  EC50: 10.6 µM (active)

## COc1cccc(N2C(=O)C(Cl)=C(N3CCN[C@@H](C)C3)C2=O)c1
[11]
  IC50: > 50 µM (inconclusive)

## CC(=O)NC(c1cc(Cl)c2cccnc2c1O)C1CC1 (centres undefined)
[4]
  CC50: 5.47 µM (active)
[12]
  AC50: 1.91 µM (active)
[13]
  AC50: 3.26 µM (active)

## O=C(CC1C(=O)NCCN1Cc1ccc(-c2ccccc2)cc1)NCCc1ccccn1 (centres undefined)
[5]
  EC50: 4.73 µM (active)

## COc1ccc(C(=O)/C=C/c2cccs2)c(OC(=O)c2cccc([N+](=O)[O-])c2)c1
[14]
  EC50: 4.7 µM (active)
[4]
  CC50: 38.5 µM (active)
[15]
  EC50: > 120 µM (not active)
[16]
  EC50: 10.6 µM (active)

## CCOC(=O)C1(Cc2ccccc2)CCN(Cc2c[nH]nc2-c2ccccc2)CC1
[5]
  EC50: 6.68 µM (active)

## CCN(CC)S(=O)(=O)c1cccc(-c2nnc(SCCOc3ccccc3C)o2)c1
[3]
  EC50: 9.91 µM (active)

## COc1ccc(-c2cc(=O)oc3cc(OCC(=O)Nc4ccc(CCO)cc4)ccc23)cc1
[17]
  IC50: > 20 µM (inactive)
[18]
  EC50: 9.26 µM (active)
[19]
  IC50: > 20 µM (inactive)
[20]
  IC50: 5.18 µM (active)
[21]
  IC50: > 20 µM (inactive)
[22]
  IC50: > 20 µM (inactive)
[23]
  IC50: > 20 µM (inactive)

## Cc1cccc(N2C(=O)C(Cl)=C(N(C)C)C2=O)c1
[11]
  IC50: > 50 µM (inconclusive)

## COC(=O)c1ccc(N2CCN(C)CC2)c(NC(=O)COc2ccccc2)c1
[5]
  EC50: 5.96 µM (active)

## Clc1ccc(CN(CC2CCCO2)C(c2cccs2)c2nnnn2C2CCCC2)cc1 (centres undefined)
[3]
  EC50: 6.56 µM (active)

## CCOC(=O)Cc1csc(NC(=O)COc2ccc3ccccc3c2)n1
[3]
  EC50: 2.56 µM (active)

## O=c1oc(CCCO)cc2ccc(C#Cc3ccsc3)cc12
[4]
  CC50: > 40 µM (active)

## CCOc1cc(/C=N/Nc2ccc(S(=O)(=O)Nc3ccccc3C(=O)O)cc2[N+](=O)[O-])cc(Cl)c1O
[2]
  IC50: 30.4 µM (active)

## C=CC/N=c1\scc(-c2ccc(F)cc2)n1/N=C/c1ccccn1
[4]
  CC50: > 40 µM (active)

## CSc1ccc(N=Nc2c(C)[nH]n(C)c2=O)cc1
[24]
  IC50: 15.6 µM (active)

## O=C(N/N=C/c1ccccn1)c1cc([N+](=O)[O-])cc([N+](=O)[O-])c1
[24]
  IC50: 40.2 µM (active)
[25]
  AC50: 6.54 µM (active)
